Assay results: patent US7214663B2, “Tripeptide prodrug compounds” (Medarex, Inc., priority 2001, dated 2007)

Legend:
[1] = Metabolism and clearance of Suc-Leu-Ala-Leu-Dox in mice (plasma, urine); format: in vivo, mouse; conditions: after single intravenous 117 mg/kg Suc-Leu-Ala-Leu-Dox
Procedure: Plasma samples of 100 μl were transferred to microcentrifuge tubes (1.5 mL) and an internal standard of daunorubicin (20 μL at 0.5 mg/ml) was added together with acetonitrile (400 μl). The tubes were capped and briefly vortexed followed by centrifugation at 14,000 rpm. 420 μl from each tube was removed and dried in vacuo. Each sample was reconstituted in 65 μl 20 mM aqueous ammonium formate (AF) pH 4.5 buffer containing acetonitrile (20%) prior to analysis by reverse phase liquid chromatography in combination with tandem mass spectrometry (LC MS/MS).
Urine was collected at 2 and 24 hours post administration from pairs of mice in metabolic cages. Urine samples were diluted with AF buffer containing acetonitrile (20%) to give a target analyte concentration within the practical range of the LC MS/MS assay. 30 μl of each diluted sample was placed in a micro centrifuge tube (1.5 ml) and an internal standard of daunorubicin (20 μL at 0.5 mg/ml) was added together with 50 μl of AF buffer containing acetonitrile (20%). Each sample was then analyzed by LC MS/MS.
An Agilent HP1100 HPLC with DAD detector and Chemstation software was coupled to a PE Sciex API 365 mass spectrometer with an electrospray ion source. HPLC was performed on a TSK-Gel Super ODS, […], 4.6×50 mm (TosoHaas) reversed phase column equipped with a […] C18 guard disc (Higgins Analytical) and stainless steel frit (Upchurch Scientific). Chromatography was performed at room temperature. The flow rate was 0.5 ml/min. Injection volume was 50 μl. Gradient elution was performed using a mobile phase of AF buffer with increasing amounts of acetonitrile. The API 365 was operated at 365° C. in a multiple reaction monitoring mode, set to monitor specific analyte parent-daughter ion pairs. Integration of chromatograms was performed by MacQuan software (PE Sciex) and quantitation of each analyte obtained by comparison to previously obtained calibration curves. Daunorubicin was used as an internal standard in all cases.

[2] = tested on: Namalwa cells (CD10pos); assay: cells; format: cell-based, human; conditions: 24 hours, 3H-thymidine
Procedure: (§1) In addition to LNCaP, a number of B-cell lines, such as Ramos and Namalwa cells express CD10 (CD10^pos cells).
(§2) Suspension cells, BALL-1, Ramos and Namalwa cells were cultured in RPMI media containing 10% heat inactivated fetal calf serum (FCS). On the day of the study, the cells were collected, washed and resuspended at a concentration of 0.5×10^6 cells/ml in RPMI containing 10% FCS. 100 μl of cell suspension was added to 96 well plates. […] Finally 10 μl of a 100 μCi/ml ^3H-thymidine was added per well and the plates were incubated for 24 hours. The plates were harvested using a 96 well Harvester (Packard Instruments) and counted on a Packard Top Count counter. Four parameter logistic curves were fitted to the ^3H-thymidine incorporation as a function of drug molarity using Prism software to determine IC50 values.

[3] = tested on: PC-3 (prostate carcinoma) cells; conditions: PC-3, 48 hours, 3H-thymidine incorporation
Procedure: (§3) Adherent cells, LNCaP (prostate carcinoma), HT-29 (colon carcinoma) and PC-3 (prostate carcinoma), were cultured in DMEM media containing 10% heat inactivated fetal calf serum (FCS). On the day of the study the cells were detached from the plate with a trypsin solution. The collected cells were washed and resuspended at a concentration of 0.25×10^6 cells/ml in DMEM containing 10% FCS. 100 μl of cell suspension were added to 96 well plates and the plates were incubated for 3 hours to allow the cells to adhere. […] The plates were then incubated for 24 hours, pulsed with 10 μl of a 100 μCi/ml ^3H-thymidine and incubated for an additional 24 hours (total incubation time 48 hours). The plates were harvested using a 96 well Harvester (Packard Instruments) and counted on a Packard Top Count Counter. Four parameter logistic curves were fitted to the ^3H-thymidine incorporation as a function of drug molarity using Prism software to determine IC50 values.
(§4) Prostate carcinoma cells, LNCaP and PC-3 cells or colon carcinoma cells HT-29, were incubated with increasing concentration of the indicated compounds for 48 hours and cellular proliferation was measured using the ^3H-thymidine assay.

[4] = tested on: HT-29 (colon carcinoma) cells; conditions: HT29, 48 hours, 3H-thymidine incorporation
Procedure: as §3, §4

[5] = tested on: LNCaP (prostate carcinoma) cells; conditions: 48 hours, 3H-thymidine incorporation
Procedure: as §3, §4

[6] = tested on: Ramos cells (CD10pos); format: cell-based, human; conditions: 24 hours, 3H-thymidine
Procedure: as §1, §2

[7] = tested on: BALL-1 cells (CD10neg); format: cell-based, human
Procedure: as §1, §2

[8] = tested on: normal ICR mice; assay: Single dose Maximum Tolerated Dose (SD-MTD) study, 49 days, ICR mice (Examples 5 and 6)
Procedure: In a second single dose Maximum Tolerated Dose (SD-MTD) study, groups of five normal ICR mice were administered intravenous bolus doses of Suc-Leu-Ala-Leu-Dox. The mice were observed daily for 49 days and body weights measured twice weekly.
In a second single dose Maximum Tolerated Dose (SD-MTD) study, groups of five normal ICR mice were administered intravenous bolus doses of Suc-Leu-Ala-Gly-Dox. The mice were observed daily for 49 days and body weights measured twice weekly.

## COc1cccc2c1C(=O)c1c(O)c3c(c(O)c1C2=O)C[C@@](O)(C(=O)CO)C[C@@H]3O[C@H]1C[C@H](NC(=O)[C@H](CC(C)C)NC(=O)[C@H](C)NC(=O)[C@H](CC(C)C)NC(=O)CCC(=O)O)[C@H](O)[C@H](C)O1 [Suc-Leu-Ala-Leu-Dox]
[1]
  Plasma 1 hr, percent of administered dose: 1.49%
  Urine 2 hr, percent of administered dose: 9.31%
  Urine 24 hr, percent of administered dose: 2.11%
[1]; female, mouse, in vivo, read-out: Urine 2 hr, percent of administered dose
  dose excreted at 2 h: 9.31%
[2]
  IC50: 2.27 µM
[3]
  IC50: 50 µM
[4]
  IC50: 36 µM
[5]
  IC50: ~1 µM
[6]
  IC50: 2.63 µM
[7]
  fold difference between CD10pos and CD10neg cells: 30-35 fold
[7]; Ball-1 (CD10neg), 24 hours, 3H-thymidine
  IC50: 78.7 µM
[7]; ratio of IC50
  Ratio Ball-1:Namalwa: 35
  Ratio Ball-1:Ramos: 30
[8]; any dose level
  acute toxicity, within 24 hours: no acute toxicity
[8]; doxorubicin equivalent, intravenous bolus, ICR mice, Day 49
  SD-MTD (mg/kg Dox =): 42 mg/kg Dox =
[8]; single intravenous bolus, 49 days
  dose groups with toxicity (partial hind-end paralysis, body weight loss >20%): ≥ 94 mg/kg
